PubChem BioAssay (NCI)
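Test compounds were applied to cells in 96-well plates for 48 hours at 5 doses. GI50 = concentration required for 50% inhibition of growth. TGI marks complete inhibition of growth.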

Assays:
Experiment in all cases: DTP human tumour cell line panel, 48 h
786-0 renal = tested on: 786-0 renal
A498 renal = tested on: A498 renal
A549 NSCLC = tested on: A549 NSCLC
ACHN renal = tested on: ACHN renal
BT-549 breast = tested on: BT-549 breast
CAKI-1 renal = tested on: CAKI-1 renal
CCRF-CEM leukemia = tested on: CCRF-CEM leukemia
COLO 205 colon = tested on: COLO 205 colon
DU-145 prostate = tested on: DU-145 prostate
EKVX NSCLC = tested on: EKVX NSCLC
HCC-2998 colon = tested on: HCC-2998 colon
HCT-116 colon = tested on: HCT-116 colon
HCT-15 colon = tested on: HCT-15 colon
HL-60(TB) leukemia = tested on: HL-60(TB) leukemia
HOP-62 NSCLC = tested on: HOP-62 NSCLC
HOP-92 NSCLC = tested on: HOP-92 NSCLC
HS 578T breast = tested on: HS 578T breast
HT29 colon = tested on: HT29 colon
IGROV1 ovarian = tested on: IGROV1 ovarian
K-562 leukemia = tested on: K-562 leukemia
KM12 colon = tested on: KM12 colon
LOX IMVI melanoma = tested on: LOX IMVI melanoma
M14 melanoma = tested on: M14 melanoma
MALME-3M melanoma = tested on: MALME-3M melanoma
MCF7 breast = tested on: MCF7 breast
MDA-MB-231 breast = tested on: MDA-MB-231 breast
MDA-MB-435 = tested on: MDA-MB-435
MDA-MB-468 breast = tested on: MDA-MB-468 breast
MOLT-4 leukemia = tested on: MOLT-4 leukemia
NCI-H226 lung = tested on: NCI-H226 lung
NCI-H23 lung = tested on: NCI-H23 lung
NCI-H460 lung = tested on: NCI-H460 lung
NCI-H522 lung = tested on: NCI-H522 lung
NCI/ADR-RES ovarian = tested on: NCI/ADR-RES ovarian
OVCAR-3 ovarian = tested on: OVCAR-3 ovarian
OVCAR-4 ovarian = tested on: OVCAR-4 ovarian
OVCAR-5 ovarian = tested on: OVCAR-5 ovarian
OVCAR-8 ovarian = tested on: OVCAR-8 ovarian
PC-3 prostate = tested on: PC-3 prostate
RPMI-8226 leukemia = tested on: RPMI-8226 leukemia
RXF 393 renal = tested on: RXF 393 renal
SF-268 CNS = tested on: SF-268 CNS
SF-295 CNS = tested on: SF-295 CNS
SF-539 CNS = tested on: SF-539 CNS
SK-MEL-2 melanoma = tested on: SK-MEL-2 melanoma
SK-MEL-28 melanoma = tested on: SK-MEL-28 melanoma
SK-MEL-5 melanoma = tested on: SK-MEL-5 melanoma
SK-OV-3 ovarian = tested on: SK-OV-3 ovarian
SN12C renal = tested on: SN12C renal
SNB-19 CNS = tested on: SNB-19 CNS
SNB-75 CNS = tested on: SNB-75 CNS
SW-620 colon = tested on: SW-620 colon
T-47D breast = tested on: T-47D breast
TK-10 renal = tested on: TK-10 renal
U251 CNS = tested on: U251 CNS
UACC-257 melanoma = tested on: UACC-257 melanoma
UACC-62 melanoma = tested on: UACC-62 melanoma
UO-31 renal = tested on: UO-31 renal

Cc1ccccc1[C@H]1C(C(=O)c2ccc(Cl)cc2)C2(N[C@@H]1c1ccccc1)C(=O)Nc1ccccc12 (stereo partly specified)
GI50 (786-0 renal): 6.9 µM
TGI (786-0 renal): 16.3 µM
GI50 (A498 renal): 6.77 µM
TGI (A498 renal): 12.9 µM
GI50 (A549 NSCLC): 5.81 µM
TGI (A549 NSCLC): 20.4 µM
GI50 (ACHN renal): 6.46 µM
TGI (ACHN renal): 14.8 µM
GI50 (BT-549 breast): 5.47 µM
TGI (BT-549 breast): 11 µM
GI50 (CAKI-1 renal): 3.62 µM
TGI (CAKI-1 renal): 11.6 µM
GI50 (CCRF-CEM leukemia): 4.8 µM
TGI (CCRF-CEM leukemia): 26.8 µM
GI50 (COLO 205 colon): 7.31 µM
TGI (COLO 205 colon): 13.8 µM
GI50 (DU-145 prostate): 4.91 µM
TGI (DU-145 prostate): 12.8 µM
GI50 (EKVX NSCLC): 4.96 µM
TGI (EKVX NSCLC): 17.2 µM
GI50 (HCC-2998 colon): 5.95 µM
TGI (HCC-2998 colon): 12.2 µM
GI50 (HCT-116 colon): 2.46 µM
TGI (HCT-116 colon): 8.7 µM
GI50 (HCT-15 colon): 5.11 µM
TGI (HCT-15 colon): 14.1 µM
GI50 (HL-60(TB) leukemia): 8.01 µM
TGI (HL-60(TB) leukemia): 30.4 µM
GI50 (HOP-62 NSCLC): 6.26 µM
TGI (HOP-62 NSCLC): 13 µM
GI50 (HOP-92 NSCLC): 2.47 µM
TGI (HOP-92 NSCLC): 8.55 µM
GI50 (HS 578T breast): 4.76 µM
TGI (HS 578T breast): 15.3 µM
GI50 (HT29 colon): 3.42 µM
TGI (HT29 colon): 11.4 µM
GI50 (IGROV1 ovarian): 5.63 µM
TGI (IGROV1 ovarian): 14 µM
GI50 (K-562 leukemia): 5.11 µM
TGI (K-562 leukemia): 42.3 µM
GI50 (KM12 colon): 6.73 µM
TGI (KM12 colon): 16.2 µM
GI50 (LOX IMVI melanoma): 2.51 µM
TGI (LOX IMVI melanoma): 7.97 µM
GI50 (M14 melanoma): 5.62 µM
TGI (M14 melanoma): 11.7 µM
GI50 (MALME-3M melanoma): 6 µM
TGI (MALME-3M melanoma): 11.6 µM
GI50 (MCF7 breast): 2.26 µM
TGI (MCF7 breast): 12.4 µM
GI50 (MDA-MB-231 breast): 4.31 µM
TGI (MDA-MB-231 breast): 9.35 µM
GI50 (MDA-MB-435): 3.65 µM
TGI (MDA-MB-435): 9.28 µM
GI50 (MDA-MB-468 breast): 0.957 µM
TGI (MDA-MB-468 breast): 2.74 µM
GI50 (MOLT-4 leukemia): 4.14 µM
TGI (MOLT-4 leukemia): 33 µM
GI50 (NCI-H226 lung): 5.91 µM
TGI (NCI-H226 lung): 12.1 µM
GI50 (NCI-H23 lung): 5.67 µM
TGI (NCI-H23 lung): 12.2 µM
GI50 (NCI-H460 lung): 6.15 µM
TGI (NCI-H460 lung): 14.9 µM
GI50 (NCI-H522 lung): 4.46 µM
TGI (NCI-H522 lung): 11.5 µM
GI50 (NCI/ADR-RES ovarian): 4.41 µM
TGI (NCI/ADR-RES ovarian): 10.8 µM
GI50 (OVCAR-3 ovarian): 1.64 µM
TGI (OVCAR-3 ovarian): 7.17 µM
GI50 (OVCAR-4 ovarian): 6.08 µM
TGI (OVCAR-4 ovarian): 16.2 µM
GI50 (OVCAR-5 ovarian): 4.37 µM
TGI (OVCAR-5 ovarian): 9.67 µM
GI50 (OVCAR-8 ovarian): 6.05 µM
TGI (OVCAR-8 ovarian): 13.4 µM
GI50 (PC-3 prostate): 2.08 µM
TGI (PC-3 prostate): 10.5 µM
GI50 (RPMI-8226 leukemia): 7.66 µM
TGI (RPMI-8226 leukemia): 28.3 µM
GI50 (RXF 393 renal): 1.42 µM
TGI (RXF 393 renal): 6.02 µM
GI50 (SF-268 CNS): 5.73 µM
TGI (SF-268 CNS): 17.1 µM
GI50 (SF-295 CNS): 5.3 µM
TGI (SF-295 CNS): 13.2 µM
GI50 (SF-539 CNS): 6.95 µM
TGI (SF-539 CNS): 13.6 µM
GI50 (SK-MEL-2 melanoma): 5.83 µM
TGI (SK-MEL-2 melanoma): 12.1 µM
GI50 (SK-MEL-28 melanoma): 5.91 µM
TGI (SK-MEL-28 melanoma): 11.7 µM
GI50 (SK-MEL-5 melanoma): 5.25 µM
TGI (SK-MEL-5 melanoma): 10.6 µM
GI50 (SK-OV-3 ovarian): 7.41 µM
TGI (SK-OV-3 ovarian): 31.5 µM
GI50 (SN12C renal): 4.92 µM
TGI (SN12C renal): 10.1 µM
GI50 (SNB-19 CNS): 8.35 µM
TGI (SNB-19 CNS): 26.6 µM
GI50 (SNB-75 CNS): 2.63 µM
TGI (SNB-75 CNS): 14.5 µM
GI50 (SW-620 colon): 5.54 µM
TGI (SW-620 colon): 13.8 µM
GI50 (T-47D breast): 4.91 µM
TGI (T-47D breast): 11.6 µM
GI50 (TK-10 renal): 6.86 µM
TGI (TK-10 renal): 15.8 µM
GI50 (U251 CNS): 5.56 µM
TGI (U251 CNS): 13.1 µM
GI50 (UACC-257 melanoma): 5.81 µM
TGI (UACC-257 melanoma): 15.3 µM
GI50 (UACC-62 melanoma): 2.78 µM
TGI (UACC-62 melanoma): 8.48 µM
GI50 (UO-31 renal): 4.6 µM
TGI (UO-31 renal): 10.8 µM
